30 molecules from publication PMC10631261 (Chemical Science, 2023) can be followed below.

Like-named read-outs stand apart in the source and are kept apart here.

One series concerns the target PHD2 (Homo sapiens, UniProt Q9GZT9). Description: biochemical. On the procedure:
(§1) 3. Biochemical procedures
(§2) Protein production and purification
(§3) PAGE analysis) according to established procedures.
(§4) FIH, PHD2, AspH, JMJD5 and KDM4A inhibition assays
(§5) The in vitro FIH,1, 2 PHD2,1 AspH,38 JMJD536 and KDM4A39 inhibition assays were performed as […]
(§6) KDM4A). Synthetic peptide substrates were used: HIF-1α C-terminal transactivation domain fragment […]
(§7) H3Lys9 bearing three methyl groups at the N ϵ position, H3Lys4 substituted by an Ala and H3Lys14 substituted by an Ile residue) for KDM4A.39 Peptides were prepared as C-terminal amides by GL Biochem (Shanghai) Ltd. Peptide hydroxylation in the case of FIH, PHD2, AspH and JMJD5 (+16 Da mass shift) or peptide demethylation in the case of KDM4A ( -14 Da mass shift) was monitored by SPE-MS. […]

The target in another series is T1, FIH (Homo sapiens, UniProt Q9NWT6).
T1 construct: made in house
T1 sequence (Q9NWT6 whole entry): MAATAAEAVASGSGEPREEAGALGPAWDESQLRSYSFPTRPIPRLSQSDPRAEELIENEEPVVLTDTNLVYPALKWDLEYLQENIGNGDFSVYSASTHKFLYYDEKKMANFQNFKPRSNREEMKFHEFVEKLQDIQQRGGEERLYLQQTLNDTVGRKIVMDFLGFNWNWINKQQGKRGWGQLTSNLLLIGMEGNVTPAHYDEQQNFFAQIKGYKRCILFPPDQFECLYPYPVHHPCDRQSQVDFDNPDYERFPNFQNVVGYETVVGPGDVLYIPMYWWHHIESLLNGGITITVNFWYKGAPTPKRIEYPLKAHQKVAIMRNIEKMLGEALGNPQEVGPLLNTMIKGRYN
Briefly: SPE-MS FIH inhibition assay. The format is biochemical. Here is the method: as §2, §3, §4, §5, §6, §7

The target of the next series is KDM4A (Homo sapiens, UniProt O75164). Description: biochemical. It is filed as biochemical.
Sequence of KDM4A (O75164 1-359): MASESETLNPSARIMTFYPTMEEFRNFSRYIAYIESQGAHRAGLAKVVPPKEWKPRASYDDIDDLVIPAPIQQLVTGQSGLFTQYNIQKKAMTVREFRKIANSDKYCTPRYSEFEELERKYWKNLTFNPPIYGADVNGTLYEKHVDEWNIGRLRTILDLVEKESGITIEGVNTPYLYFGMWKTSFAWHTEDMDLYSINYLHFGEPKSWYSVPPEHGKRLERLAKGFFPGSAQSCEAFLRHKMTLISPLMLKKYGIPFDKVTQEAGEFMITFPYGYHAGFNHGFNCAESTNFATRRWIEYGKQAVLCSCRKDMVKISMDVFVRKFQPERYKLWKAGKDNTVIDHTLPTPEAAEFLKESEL
From the text: (§8) To investigate the potential of BNS for selective FIH inhibition, its selectivity was investigated with respect to other 2OG-dependent protein oxidising enzymes, that is PHD2, Jumonji-C domain-containing protein 5 (JMJD5), aspartate/asparagine-β-hydroxylase (AspH) and KDM4A, using reported SPE-MS inhibition assays.[58,61,69,70] In addition to PHD2 and KDM4A, we included AspH and JMJD5 in our selectivity studies, because AspH, like FIH, catalyses protein aspartate- and asparagine-residue hydroxylation (although in epidermal growth factor-like domains),[71,72] and because JMJD5 is structurally closely related to FIH.[73,74]
as §1, §2, §3, §4, §5, §6, §7

In the next series the target is AspH (Homo sapiens, UniProt Q12797). Briefly: biochemical.
Sequence of AspH (Q12797 315-758): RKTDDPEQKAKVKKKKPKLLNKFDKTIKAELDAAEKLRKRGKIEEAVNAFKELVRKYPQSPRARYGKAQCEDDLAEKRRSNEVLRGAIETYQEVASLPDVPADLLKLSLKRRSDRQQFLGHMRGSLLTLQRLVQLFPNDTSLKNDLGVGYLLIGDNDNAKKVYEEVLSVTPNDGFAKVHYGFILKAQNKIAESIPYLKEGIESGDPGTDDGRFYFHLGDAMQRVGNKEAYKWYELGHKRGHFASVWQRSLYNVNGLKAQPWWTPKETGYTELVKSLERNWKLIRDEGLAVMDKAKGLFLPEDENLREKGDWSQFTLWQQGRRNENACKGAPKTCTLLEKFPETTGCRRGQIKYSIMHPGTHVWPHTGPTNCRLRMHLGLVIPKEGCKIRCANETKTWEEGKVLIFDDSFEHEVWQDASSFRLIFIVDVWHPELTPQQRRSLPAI
From the text: as §8, §1, §2, §3, §4, §5, §6, §7

For the next series, the target named is JMJD5 (Homo sapiens, UniProt Q8N371). Briefly: biochemical.
Sequence of JMJD5 (Q8N371 whole entry): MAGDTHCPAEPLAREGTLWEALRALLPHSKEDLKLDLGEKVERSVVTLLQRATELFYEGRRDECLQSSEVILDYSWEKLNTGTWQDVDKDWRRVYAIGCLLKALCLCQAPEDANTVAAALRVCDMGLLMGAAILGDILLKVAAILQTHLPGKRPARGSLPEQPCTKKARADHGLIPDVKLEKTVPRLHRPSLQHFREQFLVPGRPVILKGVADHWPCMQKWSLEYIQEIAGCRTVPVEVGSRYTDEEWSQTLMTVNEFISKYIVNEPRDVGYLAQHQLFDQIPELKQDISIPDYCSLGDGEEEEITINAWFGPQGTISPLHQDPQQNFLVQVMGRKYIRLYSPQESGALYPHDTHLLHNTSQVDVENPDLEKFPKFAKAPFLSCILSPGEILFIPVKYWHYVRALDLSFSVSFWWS
From the text: as §8, §1, §2, §3, §4, §5, §6, §7

Setting [1] is: IC50 comparison with compound 20.

Sequence of PHD2 (Q9GZT9 181-426): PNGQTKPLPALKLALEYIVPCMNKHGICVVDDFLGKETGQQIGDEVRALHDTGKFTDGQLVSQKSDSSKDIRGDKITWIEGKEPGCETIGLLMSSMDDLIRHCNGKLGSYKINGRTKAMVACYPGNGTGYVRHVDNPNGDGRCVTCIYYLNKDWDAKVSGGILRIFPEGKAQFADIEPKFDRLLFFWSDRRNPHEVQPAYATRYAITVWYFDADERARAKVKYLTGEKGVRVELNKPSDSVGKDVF

Regarding `O=C(O)Cc1cs/c(=N\C(=O)CS(=O)(=O)c2ccccc2)n1O` (hydrate or solvate) [compound 4], the melting point – broadly, the temperature of the solid-liquid transition – was 179 to 181 °C.
Still for that read-out and setting: the value for `CC(C(=O)O)c1cs/c(=N\C(=O)CS(=O)(=O)c2ccccc2)n1O` (centres unmarked) (hydrate or solvate) [compound 6] was 204 to 207 °C; that for `Cc1s/c(=N\C(=O)CS(=O)(=O)c2ccccc2)n(O)c1CC(=O)O` (hydrate or solvate) [compound 7] was 181 to 182 °C.
`O=C(O)CCc1cs/c(=N\C(=O)CS(=O)(=O)c2ccccc2)n1O` (hydrate or solvate) [compound 13] came in with a melting point of 173 to 176 °C.
The same measure, in the same setting: the value for `O=C(O)Cc1cs/c(=N\C(=O)CCS(=O)(=O)c2ccccc2)n1O` (hydrate or solvate) [compound 15] was 182 to 184 °C; that for `O=C(O)Cc1cs/c(=N\C(=O)CNC(=O)c2ccccc2)n1O` (hydrate or solvate) [compound 16] was 181 to 183 °C; that for `O=C(O)Cc1cs/c(=N\C(=O)CCNS(=O)(=O)c2ccccc2)n1O` (hydrate or solvate) [compound 20] was 178 to 180 °C.
Still for that read-out and setting: the result for `O=C(O)Cc1cs/c(=N\C(=O)C2CCCN2S(=O)(=O)c2ccccc2)n1O` (centres unmarked) (hydrate or solvate) [compound 28] reads > 190 °C (dec.); that for `CC1(C(=O)/N=c2\scc(CC(=O)O)n2O)CCN(S(=O)(=O)c2ccccc2)C1` (centres unmarked) (hydrate or solvate) [compound 29], 158 to 161 °C.
`O=C(O)Cc1csc(=NC(=O)C2CCN(S(=O)(=O)c3cccc(Cl)c3)C2)n1O` (centres unmarked) (hydrate or solvate) [compound 34] returned a melting point of 178 to 182 °C.
On the same count and under the same terms, the value for `O=C(O)Cc1csc(=NC(=O)C2CCN(S(=O)(=O)c3ccc(Cl)cc3)C2)n1O` (centres unmarked) (hydrate or solvate) [compound 35] was 195 to 197 °C; that for `COc1ccc(S(=O)(=O)N2CCC(C(=O)N=c3scc(CC(=O)O)n3O)C2)cc1` (centres unmarked) (hydrate or solvate) [compound 36] was 180 to 183 °C.
`O=C(O)Cc1csc(=NC(=O)C2CCN(S(=O)(=O)c3ccc(C(F)(F)F)cc3)C2)n1O` (centres unmarked) (hydrate or solvate) [compound 37] gave a melting point of 183 to 185 °C.
`O=C(O)Cc1csc(=NC(=O)C2CCN(S(=O)(=O)c3ccc4ccccc4c3)C2)n1O` (centres unmarked) (hydrate or solvate) [compound 40] showed a melting point of 181 to 184 °C.
Still for that read-out and setting: the result for `O=C(O)Cc1csc(=NC(=O)C2CCN(S(=O)(=O)c3cccs3)C2)n1O` (centres unmarked) (hydrate or solvate) [compound 41] reads 178 to 180 °C.
Consider `O=C(O)Cc1cs/c(=N\C(=O)CCNC(=O)c2ccccc2)n1O` [compound 17], for which the melting point lay within 180 to 183 °C. The IC50 – broadly, the concentration needed to halve the response being measured – on PHD2 came to 3.6 ± 0.4 µM. The same molecule came in with an IC50 against FIH of 4.6 ± 0.7 µM. Further, the “loss in FIH inhibition relative to 20” value at FIH (setting [1]) is ~5 fold. Further, the concentration for half-maximal inhibition (IC50) at KDM4A was > 100 µM. This molecule also yielded an IC50 at AspH of 28.3 ± 6.5 µM. In addition, 4.6 ± 1.7 µM corresponded to half-maximal inhibition against JMJD5 (IC50).
Molecule `O=C(O)Cc1cs/c(=N\C(=O)CNS(=O)(=O)c2ccccc2)n1O` [compound 19] showed a melting point of 178 to 180 °C. The molecule further returned an IC50 against PHD2 of 15.5 ± 4.6 µM. The IC50 against FIH amounted to 3.7 ± 1.5 µM. Also, the “loss in FIH inhibition relative to 20” value on FIH (setting [1]) is recorded as ~4 fold. Moreover, inhibition at KDM4A was half-maximal at 17.4 ± 0.2 µM (IC50). Besides, the IC50 against AspH was 3.1 ± 0.4 µM. For the same molecule, the IC50 at JMJD5 (read-out: JMJD5 IC50) came to 12 ± 0.6 µM.
As for `O=C(O)Cc1cs/c(=N\C(=O)C2CN(S(=O)(=O)c3ccccc3)C2)n1O` [compound 24], the melting point is 170 to 173 °C. Further, the IC50 against PHD2 worked out at 5.2 ± 0.7 µM. The IC50 at FIH came out at 0.45 ± 0.17 µM. In addition, the “selectivity for FIH inhibition over PHD2 inhibition” value at FIH (as judged by IC50 values) was found to be 12 fold. In addition, the IC50 on KDM4A is > 100 µM. On AspH, this molecule showed an IC50 of 60.9 ± 24.1 µM. Moreover, the IC50 on JMJD5 (read-out: JMJD5 IC50) turned out to be 29.1 ± 4.4 µM.
Regarding `CC1(C(=O)/N=c2\scc(CC(=O)O)n2O)CN(S(=O)(=O)c2ccccc2)C1` [compound 25], the melting point fell in the range of 156 to 158 °C. This molecule registered a 50% inhibitory concentration (IC50) against PHD2 of 33.5 ± 1 µM. Moreover, on FIH, the IC50 came out at 1.2 ± 0.2 µM. Also, on KDM4A, the IC50 was > 100 µM. At AspH, the IC50 is > 100 µM. Besides, the IC50 at JMJD5 (read-out: JMJD5 IC50) came out at 32.6 ± 6.7 µM.
In turn, `O=C(O)Cc1csc(=NC(=O)C2CCN(S(=O)(=O)c3ccccc3)C2)n1O` (centres unmarked) [compound 26] displayed a melting point of 185 to 187 °C. The molecule further came in with an IC50 against PHD2 of 12.4 ± 0.8 µM. Besides, at FIH, the IC50 came to 0.5 ± 0.02 µM; the “selectivity for FIH with respect to PHD2, JMJD5, AspH and KDM4A inhibition” value was > 25 fold. The “increase of FIH inhibition potency relative to 20” value on FIH (setting [1]) is on record as ~2 fold. On FIH (as judged by IC50 values), the “selectivity for FIH inhibition over AspH inhibition” value is given as ~75 fold, the “selectivity for FIH inhibition over JMJD5 inhibition” value is ~25 fold and the “selectivity for FIH inhibition over PHD2 inhibition” value is reported as ~25 fold. Besides, the IC50 on KDM4A was > 100 µM. Besides, inhibition on AspH was half-maximal at 37.8 ± 11.3 µM (IC50). In addition, the IC50 on JMJD5 (read-out: JMJD5 IC50) was determined as 12.5 ± 1 µM.
`O=C(O)Cc1cs/c(=N\C(=O)C2CCCN2S(=O)(=O)c2ccccc2)n1O` (centres unmarked) [compound 28]: the IC50 is 12.7 ± 1.8 µM at PHD2; 2.1 ± 1.5 µM against FIH; > 100 µM on KDM4A; 24.9 ± 12 µM at AspH; 2.6 ± 0.2 µM on JMJD5 (read-out: JMJD5 IC50).
The like results for `CC1(C(=O)/N=c2\scc(CC(=O)O)n2O)CCN(S(=O)(=O)c2ccccc2)C1` (centres unmarked) [compound 29] were, in that order, > 100 µM, > 100 µM, > 100 µM, > 100 µM and > 100 µM.
With `O=C(O)Cc1csc(=NC(=O)C2CCN(S(=O)(=O)c3ccccc3Cl)C2)n1O` (centres unmarked) [compound 33], the IC50 at PHD2 is 8 ± 0.2 µM; against FIH it was 0.39 ± 0.04 µM; against KDM4A, > 100 µM; against AspH it was 30.3 ± 12.6 µM; on JMJD5 (read-out: JMJD5 IC50), 11.9 ± 1.8 µM.
For `O=C(O)Cc1csc(=NC(=O)C2CCN(S(=O)(=O)c3cccc(Cl)c3)C2)n1O` (centres unmarked) [compound 34], the IC50 against PHD2 is 14.6 ± 3.2 µM; against FIH it was 0.44 ± 0.03 µM; against KDM4A, > 100 µM; against AspH it was 35 µM; at JMJD5 (read-out: JMJD5 IC50) it was 18.5 ± 1 µM.
In the case of `O=C(O)Cc1csc(=NC(=O)C2CCN(S(=O)(=O)c3ccc(Cl)cc3)C2)n1O` (centres unmarked) [compound 35], the IC50 against PHD2 was 9.2 ± 0.4 µM; against FIH, 0.46 ± 0.01 µM; against KDM4A, > 100 µM; against AspH, 28.8 ± 8.9 µM; at JMJD5 (read-out: JMJD5 IC50), 37.7 ± 0.9 µM.
The like results for `COc1ccc(S(=O)(=O)N2CCC(C(=O)N=c3scc(CC(=O)O)n3O)C2)cc1` (centres unmarked) [compound 36] were, in that order, 9.8 ± 0.5 µM, 0.46 ± 0.01 µM, > 100 µM, 36.6 ± 2.8 µM and 16 ± 6.8 µM.
The like results for `O=C(O)Cc1csc(=NC(=O)C2CCN(S(=O)(=O)c3ccc(C(F)(F)F)cc3)C2)n1O` (centres unmarked) [compound 37] were, in that order, 15.2 ± 3.6 µM, 0.47 ± 0.07 µM, > 100 µM, 36 ± 0.7 µM and 63.2 ± 6.1 µM.
The like results for `O=C(O)Cc1csc(=NC(=O)C2CCN(S(=O)(=O)c3ccc4ccccc4c3)C2)n1O` (centres unmarked) [compound 40] were, in that order, 5.2 ± 1.1 µM, 0.45 ± 0.08 µM, > 100 µM, 40.1 ± 2.2 µM and 62.8 ± 0.4 µM.
For `O=C(O)Cc1csc(=NC(=O)C2CCN(S(=O)(=O)c3cccs3)C2)n1O` (centres unmarked) [compound 41], the IC50 is 11.2 ± 2.3 µM at PHD2; 0.47 ± 0.07 µM at FIH; > 100 µM against KDM4A; 30.3 ± 8 µM against AspH; 15.4 ± 7.1 µM at JMJD5 (read-out: JMJD5 IC50).
As to `O=C(O)Cc1csc(=NC(=O)C2CCN(S(=O)(=O)C3CCCC3)C2)n1O` (centres unmarked) [compound 43], the melting point fell in the range of 177 to 180 °C. Further, at PHD2, the IC50 was 9.9 ± 0.5 µM. On FIH, this molecule displayed an IC50 of 0.81 ± 0.18 µM. The IC50 against KDM4A is > 100 µM. Besides, inhibition at AspH was half-maximal at 35.5 ± 3.2 µM (IC50). The IC50 on JMJD5 (read-out: JMJD5 IC50) was 17.4 ± 6 µM.
